Experiments:
Adrenergic α2c receptor = biological target: T1, Adrenergic α2c receptor (Homo sapiens, UniProt P18825); experiment: Adrenergic α2c receptor binding, [3H]MK-912; conditions: 0.08 nM [3H]MK-912; read-out: Off-target binding Adrenergic α2c, IC50
T1 construct: purchased PerkinElmer
T1 sequence (P18825 1-462): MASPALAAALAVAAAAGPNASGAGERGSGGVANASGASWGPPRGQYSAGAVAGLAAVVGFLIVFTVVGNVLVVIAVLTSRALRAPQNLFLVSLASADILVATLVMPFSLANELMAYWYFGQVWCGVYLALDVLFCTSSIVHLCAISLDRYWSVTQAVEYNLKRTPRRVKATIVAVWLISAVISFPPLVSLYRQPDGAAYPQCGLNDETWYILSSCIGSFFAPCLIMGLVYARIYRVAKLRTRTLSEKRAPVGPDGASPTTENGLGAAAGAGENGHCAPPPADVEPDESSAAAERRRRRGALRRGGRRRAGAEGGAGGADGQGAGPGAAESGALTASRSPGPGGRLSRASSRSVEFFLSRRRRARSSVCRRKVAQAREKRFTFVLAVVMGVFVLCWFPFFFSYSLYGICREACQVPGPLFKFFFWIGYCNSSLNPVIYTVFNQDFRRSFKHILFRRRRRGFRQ
Procedure: (§1) H) 6.86 [d, J = 8.67 Hz, 2 H]; MS [ESI/APCI Dual) [Positive) m/z; 381(M+H)+ ) .
(§2) Off-target binding of compounds
(§3) The membrane preparations were made from Jurkat cell lines, and were incubated in sigma 1 binding buffer (0.1% bovine serum albumin in 50 mM Tris, pH7.4) containing 4 nM [3H]pentazocine (PerkinElmer), and serial concentrations of the compound at 25°C for 2.5 h. The reaction was terminated by rapid filtration through a 96-well GF/C filter plate presoaked in 0.5% polyethyleneimine.
(§4) The filters were washed with ice-cold 50 mM Tris (pH7.4) three times, dried, and filled with Microscint-o. The radioactivity retained on the filter was counted using a TopCount NXT. Nonspecific binding was determined as the amount of radioactivity under the above-mentioned conditions in the presence of […] of haloperidol. The IC50 values were determined by nonlinear curve-fitting of the concentration-response data for each compound using Origin version 6.1087 (OriginLab Corporation, […]
(§5) Adrenergic 2c receptor binding
Human 2c receptor-expressing membrane preparations were purchased from PerkinElmer. The membranes were incubated in binding buffer (1 mM EDTA and 0.1% bovine serum albumin in 50 mM Tris, pH7.4) containing 0.08 nM [3H]MK-912 (PerkinElmer), and serial concentrations of the compound at 25°C for 1 h. The reaction was terminated by rapid filtration through a 96-well GF/C filter plate presoaked in 0.5% polyethyleneimine. […] The radioactivity retained on the filter was counted using a TopCount NXT. Nonspecific binding was determined as the amount of radioactivity under the conditions mentioned above in the presence of […] of rauwolscine. The IC50 values were determined as for sigma 1 receptor binding. […]
The reaction was terminated by rapid filtration through a 96-well GF/C filter plate presoaked in 0.5% polyethyleneimine. […] The radioactivity retained on the filter was counted using a TopCount NXT. Nonspecific binding was determined as the amount of radioactivity under the above-mentioned conditions in the presence of 1 µM of atropine.

[1] = Lipophilicity measurement (Log D); type: physicochemical; conditions: pH 7.4; octanol and phosphate buffer (pH7.4); read-out: Log D7.4
Procedure: Lipophilicity measurement
Log D was determined by partitioning each compound between an octanol and phosphate buffer […]
each layer using HPLC with ultraviolet (UV) detection.
Assays for P-glycoprotein-mediated transcellular transport of compounds LLC-GA5-COL300 cells expressing human P-glycoprotein were seeded at a density of 4.5 × 10^5 cells/cm2 onto polycarbonate membrane filters of 12-well cell culture insert plates and cultured at 37°C in a humidified incubator containing 5% CO2 for 3 days. After each cell monolayer was pre-incubated at 37°C for 20 min in Hank’s balanced salt solution containing 10 mM HEPES (HBSS buffer), transcellular transport experiments were initiated by adding the test compound solution to the apical or basal side of the cell culture inserts. HBSS buffer was sampled from the compartment opposite of that spiked with the test compounds at 0.5, 1, 1.5 and 2 h after initiation of the experiments, and concentrations of the test compounds were determined using LC-MS/MS. The apparent permeability coefficient (Papp) of the test compounds was calculated using the following equation:
Papp= dQ/dt / C0 / A Eq. 1, where dQ/dt represents the rate of permeation of the compounds, C0 is the initial concentration of the test compounds ([…]), and A is the area of the monolayer. The efflux ratio (ER) was defined as […]

Sigma 1 receptor = biological target: T2, Sigma 1 receptor (Homo sapiens, UniProt Q99720); experiment: Sigma 1 receptor binding, [3H]pentazocine; conditions: Jurkat cell membranes; 4 nM [3H]pentazocine; read-out: Off-target binding Sigma 1, IC50
T2 construct: The membrane preparations were made from Jurkat cell lines; endogenous in cells; host or cells: Jurkat
T2 sequence (Q99720 whole entry): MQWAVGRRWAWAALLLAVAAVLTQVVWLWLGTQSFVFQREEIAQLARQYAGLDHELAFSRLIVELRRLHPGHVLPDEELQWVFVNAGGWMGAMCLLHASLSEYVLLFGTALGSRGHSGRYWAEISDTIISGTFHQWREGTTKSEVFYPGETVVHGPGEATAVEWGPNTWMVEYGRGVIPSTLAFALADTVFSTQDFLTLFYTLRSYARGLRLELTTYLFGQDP
Procedure: as §1, §2, §3, §4, §5
Human 2c receptor-expressing membrane preparations were purchased from PerkinElmer. The

K+ channel SKCa = experiment: Off-target binding (Cerep); design: unit of the concentration uncertain
Description: (§6) Off-target binding of compounds assessed using an in-house assay (M4) and a commercial battery (all others) (Cerep, Celle L'Evescault, France).
(§7) Concentration % Inhibition Concentration % Inhibition Concentration % Inhibition […]
(§8) *1α -amino-3-hydroxy-5-methyl-4-isoxazolepropionic acid receptor; *2N-methyl-D-aspartate receptor; *3Strychnine-insensitive glycine-binding module of NMDA receptor; *4Phencyclidine-binding site of NMDA receptor; *5ATP-sensitive potassium channel; *6Voltage-dependent potassium channel; *7small conductance calcium-activated potassium channel; *85-hydroxytryptamine 1A receptor

K+ channel KATP = experiment: Off-target binding (Cerep); design: unit of the concentration uncertain
Description: as §6, §7, §8

Glutamate NMDA = experiment: Off-target binding (Cerep); design: unit of the concentration uncertain
Description: as §6, §7, §8

Glutamate AMPA = experiment: Off-target binding (Cerep); design: unit of the concentration uncertain
Description: as §6, §7, §8

[2] = system: Glutamate Glycine (Strychnine-insensitive glycine-binding module of NMDA receptor); experiment: Off-target binding (Cerep); design: unit of the concentration uncertain
Description: as §6, §7, §8

K+ channel KV = experiment: Off-target binding (Cerep); design: unit of the concentration uncertain
Description: as §6, §7, §8

[3] = system: Glutamate PCP (Phencyclidine-binding site of NMDA receptor); experiment: Off-target binding (Cerep); design: unit of the concentration uncertain
Description: as §6, §7, §8

[4] = Concentration 10 (unit uncertain)
[5] = Concentration 1 (unit uncertain)

IC50 (Adrenergic α2c receptor) [µM] | logD [1] | IC50 (Sigma 1 receptor) [µM] | % Inhibition (K+ channel SKCa; [4]) [%] | % Inhibition (K+ channel KATP; [4]) [%] | % Inhibition (Glutamate NMDA; [4]) [%] | % Inhibition (Glutamate AMPA; [4]) [%] | % Inhibition [2, 4] [%] | % Inhibition (K+ channel KV; [4]) [%] | % Inhibition [3, 4] [%] | % Inhibition (K+ channel SKCa; [5]) [%] | % Inhibition (K+ channel KATP; [5]) [%] | % Inhibition (Glutamate NMDA; [5]) [%] | % Inhibition (Glutamate AMPA; [5]) [%] | % Inhibition [2, 5] [%] | % Inhibition (K+ channel KV; [5]) [%] | % Inhibition [3, 5] [%] | Structure (SMILES)
> 1 | 1.36 | 0.167 | 7 | 22 | -2 | -18 | 12 | -15 | -2 |  |  |  |  |  |  |  | COc1ccc(N2C(=O)CCc3cc(OCCCN4CCC[C@H]4C)ccc32)cc1 [TASP0390136, 1-(4-methoxyphenyl)-6-{3-[(2R)-2-methylpyrrolidin-1-yl]propoxy}-3,4-dihydroquinolin-2(1H)-one]
> 1 | 1.79 | 0.379 | -1 | 5 | 11 | 1 | -5 | -11 | -2 |  |  |  |  |  |  |  | COc1ccc(N2C(=O)CCc3cc(OC4CCN(C5CCC5)CC4)ccc32)cn1 [TASP0410457, 6-[(1-Cyclobutylpiperidin-4-yl)oxy]-1-(6-methoxypyridin-3-yl)-3,4-dihydroquinolin-2(1H)-one]
0.528 | 2.22 | 0.257 |  |  |  |  |  |  |  | -2 | -4 | -7 | 0 | -8 | -1 | 9 | COc1ccc(N2C(=O)CCc3cc(OC4CCN(C5CCC5)CC4)ccc32)cc1 [TASP0434988, 6-[(1-cyclobutylpiperidin-4-yl)oxy]-1-(4-methoxyphenyl)-3,4-dihydroquinolin-2(1H)-one]

— publication PMC4747952, “Development of TASP0410457 (TASP457), a novel dihydroquinolinone derivative as a PET radioligand for central histamine H3 receptors” (EJNMMI Research, 2016)
